According to ChEMBL document CHEMBL3885861, “Open TG-GATES”:

Species: Rattus norvegicus
Experiment: Open TG-GATES - Regimen: Single
Assay type: toxicity, organism-based, Sprague-Dawley
Parameters: regimen Single, gender Male, age 6 weeks
Conditions: in vivo, po, 30 mg/kg, route gavage, dose level Middle; for APTT / Bas / Eos / Fbg / Hb / Ht / Lym / MCH / MCHC / MCV / Mono / Neu / PT / Plat / RBC / Ret / WBC: tissue Blood; for KIDNEY_L / KIDNEY_R / KIDNEY_TOTAL: tissue Kidney; for LIVER: tissue Liver; for A/G / ALP / ALT / AST / BUN / CRE / Ca / Cl / DBIL / GLC / IP / K / LDH / Na / PL / RALB / TBIL / TC / TG / TP / gamma-GTP: tissue Plasma

SMILES: CN(C)CCN(Cc1cccs1)c1ccccn1
- TERMINAL_BW (3 h): 182 g
- APTT (3 h): 21.9 s
- Bas (3 h): 0%
- Eos (3 h): 0.6%
- Fbg (3 h): 308.2 mg/dL
- Hb (3 h): 13 g/dL
- Ht (3 h): 39.6%
- Lym (3 h): 80.2%
- MCH (3 h): 21.6 pg
- MCHC (3 h): 32.8%
- MCV (3 h): 65.9 fL
- Mono (3 h): 2.2%
- Neu (3 h): 15.8%
- PT (3 h): 16.1 s
- Plat (3 h): 115.9 x10_4/uL
- RBC (3 h): 603 x10_4/ul
- Ret (3 h): 7.3%
- WBC (3 h): 81.5 x10_2/uL
- KIDNEY_L (3 h): 0.8 g
- KIDNEY_R (3 h): 0.9 g
- KIDNEY_TOTAL (3 h): 1.7 g
- LIVER (3 h): 8.3 g
- A/G (3 h): 1.3
- ALP (3 h): 1624.8 IU/L
- ALT (3 h): 41.4 IU/L
- AST (3 h): 73.6 IU/L
- BUN (3 h): 13 mg/dL
- CRE (3 h): 0.2 mg/dL
- Ca (3 h): 10.5 mg/dL
- Cl (3 h): 107.6 meq/L
- DBIL (3 h): 0 mg/dL
- GLC (3 h): 179 mg/dL
- IP (3 h): 8.4 mg/dL
- K (3 h): 4.4 meq/L
- LDH (3 h): 201.8 IU/L
- Na (3 h): 142.8 meq/L
- PL (3 h): 140.4 mg/dL
- RALB (3 h): 3 g/dL
- TBIL (3 h): 0.016 mg/dL
- TC (3 h): 75.4 mg/dL
- TG (3 h): 53.4 mg/dL
- TP (3 h): 5.4 g/dL
- gamma-GTP (3 h): 1 IU/L
- TERMINAL_BW (6 h): 186.2 g
- APTT (6 h): 21.5 s
- Bas (6 h): 0%
- Eos (6 h): 0.6%
- Fbg (6 h): 292.6 mg/dL
- Hb (6 h): 12.6 g/dL
- Ht (6 h): 38.7%
- Lym (6 h): 74.6%
- MCH (6 h): 21 pg
- MCHC (6 h): 32.7%
- MCV (6 h): 64 fL
- Mono (6 h): 2%
- Neu (6 h): 22%
- PT (6 h): 16.9 s
- Plat (6 h): 117.9 x10_4/uL
- RBC (6 h): 604 x10_4/ul
- Ret (6 h): 7.6%
- WBC (6 h): 62.8 x10_2/uL
- KIDNEY_L (6 h): 0.8 g
- KIDNEY_R (6 h): 0.9 g
- KIDNEY_TOTAL (6 h): 1.7 g
- LIVER (6 h): 8 g
- A/G (6 h): 1.2
- ALP (6 h): 1536.2 IU/L
- ALT (6 h): 34.2 IU/L
- AST (6 h): 71.2 IU/L
- BUN (6 h): 12.8 mg/dL
- CRE (6 h): 0.1 mg/dL
- Ca (6 h): 10.5 mg/dL
- Cl (6 h): 106.2 meq/L
- DBIL (6 h): 0 mg/dL
- GLC (6 h): 173 mg/dL
- IP (6 h): 9.2 mg/dL
- K (6 h): 4.5 meq/L
- LDH (6 h): 178 IU/L
- Na (6 h): 141.6 meq/L
- PL (6 h): 142.4 mg/dL
- RALB (6 h): 2.8 g/dL
- TBIL (6 h): 0.024 mg/dL
- TC (6 h): 82.6 mg/dL
- TG (6 h): 53 mg/dL
- TP (6 h): 5.3 g/dL
- gamma-GTP (6 h): 1 IU/L
- TERMINAL_BW (9 h): 183.7 g
- APTT (9 h): 20.6 s
- Bas (9 h): 0%
- Eos (9 h): 0.6%
- Fbg (9 h): 290.8 mg/dL
- Hb (9 h): 12.9 g/dL
- Ht (9 h): 38.4%
- Lym (9 h): 74%
- MCH (9 h): 21.1 pg
- MCHC (9 h): 33.5%
- MCV (9 h): 63.1 fL
- Mono (9 h): 2.2%
- Neu (9 h): 22.2%
- PT (9 h): 15.5 s
- Plat (9 h): 124.7 x10_4/uL
- RBC (9 h): 608.8 x10_4/ul
- Ret (9 h): 7.7%
- WBC (9 h): 66.5 x10_2/uL
- KIDNEY_L (9 h): 0.8 g
- KIDNEY_R (9 h): 0.8 g
- KIDNEY_TOTAL (9 h): 1.7 g
- LIVER (9 h): 7.5 g
- A/G (9 h): 1.2
- ALP (9 h): 1582.8 IU/L
- ALT (9 h): 35.8 IU/L
- AST (9 h): 69.8 IU/L
- BUN (9 h): 11.2 mg/dL
- CRE (9 h): 0.1 mg/dL
- Ca (9 h): 10.3 mg/dL
- Cl (9 h): 106.8 meq/L
- DBIL (9 h): 0.002 mg/dL
- GLC (9 h): 166.6 mg/dL
- IP (9 h): 9.9 mg/dL
- K (9 h): 4.5 meq/L
- LDH (9 h): 205.6 IU/L
- Na (9 h): 141.8 meq/L
- PL (9 h): 131 mg/dL
- RALB (9 h): 3 g/dL
- TBIL (9 h): 0.022 mg/dL
- TC (9 h): 77.4 mg/dL
- TG (9 h): 42.2 mg/dL
- TP (9 h): 5.5 g/dL
- gamma-GTP (9 h): 1 IU/L
- TERMINAL_BW (24 h): 198 g
- APTT (24 h): 20 s
- Bas (24 h): 0%
- Eos (24 h): 0.8%
- Fbg (24 h): 308 mg/dL
- Hb (24 h): 12.9 g/dL
- Ht (24 h): 38.8%
- Lym (24 h): 84.4%
- MCH (24 h): 20.6 pg
- MCHC (24 h): 33.2%
- MCV (24 h): 62.1 fL
- Mono (24 h): 1.6%
- Neu (24 h): 12.4%
- PT (24 h): 16.8 s
- Plat (24 h): 124 x10_4/uL
- RBC (24 h): 625.6 x10_4/ul
- Ret (24 h): 6.8%
- WBC (24 h): 67.2 x10_2/uL
- KIDNEY_L (24 h): 0.9 g
- KIDNEY_R (24 h): 0.9 g
- KIDNEY_TOTAL (24 h): 1.8 g
- LIVER (24 h): 9.3 g
- A/G (24 h): 1.2
- ALP (24 h): 1883 IU/L
- ALT (24 h): 46.4 IU/L
- AST (24 h): 74.8 IU/L
- BUN (24 h): 15.4 mg/dL
- CRE (24 h): 0.2 mg/dL
- Ca (24 h): 10.9 mg/dL
- Cl (24 h): 106 meq/L
- DBIL (24 h): 0.004 mg/dL
- GLC (24 h): 179.8 mg/dL
- IP (24 h): 7.3 mg/dL
- K (24 h): 4.4 meq/L
- LDH (24 h): 254.8 IU/L
- Na (24 h): 142.4 meq/L
- PL (24 h): 143.2 mg/dL
- RALB (24 h): 3 g/dL
- TBIL (24 h): 0.008 mg/dL
- TC (24 h): 73.4 mg/dL
- TG (24 h): 124.6 mg/dL
- TP (24 h): 5.5 g/dL
- gamma-GTP (24 h): 1.2 IU/L
